According to ChEMBL document CHEMBL4052601, “Glycybridins A-K, Bioactive Phenolic Compounds from Glycyrrhiza glabra” (J Nat Prod, 2017):
Active and inactive are the calls of the source. The calls are words filed in the database; no cut-off is given here.

Assays:
RAW264.7 [1] = assay: Antiinflammatory activity against mouse RAW264.7 cells assessed as inhibition of LPS-induced nitric oxide production at 10 uM after 24 hrs by Griess assay relative to control; format: functional; details: RAW264.7, 24 h
Homo sapiens = assay: Inhibition of LPS-induced NF-kappaB (unknown origin) transactivation expressed in human SW480 cells at 10 uM administered 1 hr after LPS stimulation measured after 6 hrs by luciferase reporter gene assay relative to control; format: cell-based
[2] = Inhibition of LPS-induced NF-kappaB (unknown origin) transactivation expressed in human SW480 cells administered 1 hr after LPS stimulation measured after 6 hrs by luciferase reporter gene assay; format: cell-based
HepG2 = assay: Antiproliferative activity against human HepG2 cells at 10 uM after 24 hrs by MTS assay relative to control; format: functional; details: HepG2, 24 h
A549 [3] = assay: Antiproliferative activity against human A549 cells at 10 uM after 24 hrs by MTS assay relative to control; format: functional; details: A549, 24 h
MCF7 = assay: Antiproliferative activity against human MCF7 cells at 10 uM after 24 hrs by MTS assay relative to control; format: functional; details: MCF7, 24 h
SW480 = assay: Antiproliferative activity against human SW480 cells at 10 uM after 24 hrs by MTS assay relative to control; format: functional; details: SW480, 24 h
[4] = biological target: T1, Tyrosinase (Homo sapiens) (UniProt P14679); details: at 10 µM
T1 sequence (whole entry): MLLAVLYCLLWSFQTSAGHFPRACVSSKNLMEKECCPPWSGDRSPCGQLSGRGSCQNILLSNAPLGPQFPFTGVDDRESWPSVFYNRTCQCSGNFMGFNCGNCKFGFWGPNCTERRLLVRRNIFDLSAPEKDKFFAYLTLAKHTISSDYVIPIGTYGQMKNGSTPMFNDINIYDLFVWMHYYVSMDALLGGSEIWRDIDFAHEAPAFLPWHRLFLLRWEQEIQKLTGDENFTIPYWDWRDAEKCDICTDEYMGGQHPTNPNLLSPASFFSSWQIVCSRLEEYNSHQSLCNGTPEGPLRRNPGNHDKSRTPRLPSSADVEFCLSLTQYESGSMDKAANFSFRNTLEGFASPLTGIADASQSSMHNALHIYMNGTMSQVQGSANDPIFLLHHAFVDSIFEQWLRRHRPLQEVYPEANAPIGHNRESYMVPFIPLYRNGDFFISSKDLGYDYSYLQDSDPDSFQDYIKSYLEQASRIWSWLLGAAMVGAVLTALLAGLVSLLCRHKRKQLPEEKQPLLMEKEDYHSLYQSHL
Description: Inhibition of tyrosinase (unknown origin) using L-tyrosine as substrate at 10 uM preincubated for 15 mins followed by substrate addition relative to control

[5] = biological target: T2, Tyrosine-protein phosphatase non-receptor type 1 (Homo sapiens) (UniProt P18031); details: at 10 µM
T2 sequence (whole entry): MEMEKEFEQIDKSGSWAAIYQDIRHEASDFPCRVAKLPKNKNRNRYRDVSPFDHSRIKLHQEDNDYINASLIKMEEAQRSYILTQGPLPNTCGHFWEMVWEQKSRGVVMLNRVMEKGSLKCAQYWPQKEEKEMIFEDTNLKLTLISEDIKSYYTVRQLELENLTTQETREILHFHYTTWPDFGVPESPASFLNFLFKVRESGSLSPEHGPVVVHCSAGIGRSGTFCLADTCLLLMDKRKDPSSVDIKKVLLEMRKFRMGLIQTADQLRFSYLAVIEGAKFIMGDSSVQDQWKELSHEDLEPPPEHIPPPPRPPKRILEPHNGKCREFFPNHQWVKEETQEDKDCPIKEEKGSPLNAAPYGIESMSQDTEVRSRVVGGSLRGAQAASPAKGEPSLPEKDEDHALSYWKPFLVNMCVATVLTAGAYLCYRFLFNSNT
Description: Inhibition of recombinant human PTP1B using pNPP as substrate at 10 uM after 30 mins relative to control

A549 [6] = assay: Antitumor activity against human A549 cells xenografted in BALB/c nude mouse assessed as tumor growth inhibition at 5 mg/kg, ip administered as daily dose for 16 days; format: functional, organism-based
Mus musculus [7] = assay: Toxicity in BALB/c nude mouse xenografted with human A549 cells at 5 mg/kg, ip administered as daily dose for 16 days relative to control; format: organism-based; details: in vivo, 384 h
Mus musculus [8] = assay: Toxicity in BALB/c nude mouse xenografted with human A549 cells assessed as change in body weight at 5 mg/kg, ip administered as daily dose for 16 days relative to control; format: organism-based; details: in vivo, 384 h
Tyrosinase [9] = biological target: T3, Tyrosinase (Homo sapiens, UniProt P14679); assay: Inhibition of tyrosinase (unknown origin) using L-tyrosine as substrate preincubated for 5 mins followed by substrate addition
T3 sequence (P14679 whole entry): T1 sequence (whole entry)

Tyrosinase [10] = biological target: T3, Tyrosinase; assay: Inhibition of tyrosinase (unknown origin) using L-tyrosine as substrate preincubated for 15 mins followed by substrate addition
RAW264.7 [11] = assay: Antiinflammatory activity against mouse RAW264.7 cells assessed as inhibition of LPS-induced nitric oxide production after 24 hrs by Griess assay; format: functional, cell-based; details: RAW264.7, 24 h
RAW264.7 [12] = assay: Antiinflammatory activity against mouse RAW264.7 cells assessed as inhibition of LPS induced nitric oxide production at 20 uM […] followed by LPS challenge […] relative to control; format: functional
[13] = biological target: T4, Nuclear factor erythroid 2-related factor 2 (Homo sapiens) (UniProt Q16236); assay: Activation of Nrf2 (unknown origin) expressed in human HepG2 cells after 6 hrs by ARE-driven luciferase reporter gene assay relative to control; format: cell-based
T4 sequence (whole entry): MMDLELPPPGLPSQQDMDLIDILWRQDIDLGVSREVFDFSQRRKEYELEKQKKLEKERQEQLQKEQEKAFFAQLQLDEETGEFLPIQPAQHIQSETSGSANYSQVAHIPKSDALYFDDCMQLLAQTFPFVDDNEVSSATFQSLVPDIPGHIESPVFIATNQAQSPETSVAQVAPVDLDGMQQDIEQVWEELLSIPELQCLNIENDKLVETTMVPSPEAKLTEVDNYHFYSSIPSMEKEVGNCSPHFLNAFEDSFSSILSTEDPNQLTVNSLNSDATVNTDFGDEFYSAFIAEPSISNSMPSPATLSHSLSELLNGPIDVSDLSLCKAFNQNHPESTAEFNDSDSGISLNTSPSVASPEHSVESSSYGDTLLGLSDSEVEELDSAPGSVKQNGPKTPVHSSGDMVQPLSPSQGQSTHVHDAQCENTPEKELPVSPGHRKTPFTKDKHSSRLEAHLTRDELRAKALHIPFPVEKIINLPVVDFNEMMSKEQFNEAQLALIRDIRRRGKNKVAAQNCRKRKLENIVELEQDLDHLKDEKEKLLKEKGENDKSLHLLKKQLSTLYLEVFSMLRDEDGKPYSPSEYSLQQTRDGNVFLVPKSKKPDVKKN

[14] = biological target: T2, Tyrosine-protein phosphatase non-receptor type 1 (Homo sapiens); assay: (§1) Inhibition of recombinant human PTP1B using pNPP as substrate after 30 mins
[15] = biological target: T5, Tyrosine-protein phosphatase non-receptor type 1 (Homo sapiens, UniProt P18031); assay: as §1
T5 sequence (P18031 whole entry): T2 sequence (whole entry)

SMILES | inhibition at 10 µM (RAW264.7 [1]) | inhibition (Homo sapiens) | IC50 [2] | inhibition at 10 µM (HepG2) | inhibition at 10 µM (A549 [3]) | inhibition at 10 µM (MCF7) | inhibition at 10 µM (SW480) | inhibition [4] | inhibition [5] | TGI (A549 [6]) | Activity (Mus musculus [7]) | Activity (Mus musculus [8]) | IC50 (Tyrosinase [9]) | IC50 (Tyrosinase [10]) | IC50 (RAW264.7 [11]) | fold change (FC) (RAW264.7 [12]) | Activity [13] | inhibition [14] | IC50 [15]
CC(C)=CCc1cc(/C=C/C(=O)c2ccc(O)cc2O)ccc1O [LICOAGROCHALCONE A] | 31.6% | 69% | 6.2 µM | 33.9% | 6.4% | 35.4% | 18.3% | 22.6% | 17.2% | – | – | – | – | – | – | – | – | – | –
COc1cc([C@@H]2c3cc4c(cc3[C@@H](O[C@@H]3O[C@@H]5CO[C@@H](C)O[C@H]5[C@H](O)[C@H]3O)[C@H]3COC(=O)[C@H]23)OCO4)cc(OC)c1O [ETOPOSIDE] | – | – | – | – | – | – | – | – | – | Active | Non-Toxic | Toxic | – | – | – | – | – | – | –
CC1(C)C=Cc2cc(/C=C/C(=O)c3ccc(O)cc3O)ccc2O1 | 0% | 60.7% | 5.5 µM | 11.1% | 2.6% | 45.7% | 7.9% | 4.4% | 56.5% | – | – | – | – | – | – | – | – | – | –
CC1(C)C=Cc2c(ccc3c2OC[C@@H](c2ccc(O)cc2O)C3)O1 [GLABRIDIN] | 19.8% | 0% | – | 12.1% | 12.7% | 8.8% | 19.8% | 99.7% | 3.6% | – | – | – | 0.09 µM | – | – | – | – | – | –
CC1(C)C=Cc2c(O)ccc(C3=Cc4ccc(O)cc4OC3)c2O1 [GLABRENE] | 57.5% | 41.7% | – | 25.9% | 0% | 17.6% | 30.7% | 76.6% | 7.1% | – | – | – | – | 7.5 µM | 9.5 µM | – | – | – | –
CC1(C)C=Cc2cc3cc(-c4ccc(O)cc4O)c(=O)oc3cc2O1 | 21.2% | 0% | – | 14.4% | 0% | 24.5% | 18.1% | 84% | 56.9% | – | – | – | – | 2.8 µM | – | – | – | – | –
COc1ccc(C2COc3c(ccc(O)c3CC=C(C)C)C2=O)c(O)c1 (configuration not stated) | 18.1% | 0% | – | 50.3% | 9.4% | 8.7% | 27.8% | 68.3% | 9.9% | – | – | – | – | 5.1 µM | – | – | – | – | –
CC1(C)C=Cc2c(ccc(-c3cc4ccc(O)cc4o3)c2O)O1 | 21.6% | 75.8% | 6.4 µM | 15.6% | 14.4% | 15.1% | 27.7% | 41.7% | 22.8% | – | – | – | – | – | – | – | – | – | –
C=CC(C)(C)c1cc(/C=C/C(=O)c2ccc(O)cc2)c(OC)cc1O [LICOAGROCHACONE A] | 14.2% | 57.2% | – | 57.9% | 17.8% | 55.9% | 13.6% | 10.6% | 14.5% | – | – | – | – | – | – | 0.8 | Dose-dependent effect | – | –
CC(C)=CCc1c(O)ccc([C@@H]2COc3c(ccc4c3C=CC(C)(C)O4)C2)c1O [HISPAGLABRIDIN A] | 4% | 13.3% | – | 26.7% | 47.6% | 21.9% | 34.9% | 0% | 80.3% | – | – | – | – | – | – | – | – | Dose-dependent effect | 5 to 7.9 µM
